According to patent US20210347823A1, “METHODS OF PHYSICOCHEMICAL-GUIDED PEPTIDE DESIGN AND NOVEL PEPTIDES DERIVED THEREFROM” (Massachusetts Institute of Technology, priority 2018, published 2021):

Key:
[1] = tested on: HEK293 human embryonic kidney cells; assay: Cytotoxicity assay (MTS); format: cell-based; settings: for toxicity at 64 μmol L^−1: assay not stated; for Cytotoxicity: HEK293, 48 h, MTS, peptides 0-64 μmol L^−1
Procedure: FIGS. 7A-7B. Cytotoxicity of engineered peptides. FIG. 7A. Schematic of the experimental design for cytotoxicity assays of Pol-CP—NH2 and derivatives against HEK293 human embryonic kidney cells. Briefly, cells were cultured in DMEM medium supplemented with FBS and antibiotics at 37° C. and 5% CO2. FIG. 7B. Results obtained by seeding HEK293 50,000 cells and incubating with peptides' solution (0-64 μmol L^−1) at 37° C. for 48 h. Cell viability was measured by MTS assay. All experiments were performed in triplicate.
Cytotoxicity assays. Human embryonic kidney 293 (HEK 293) cells were cultured in Dulbecco's Modified Eagle Medium (DMEM) supplemented with 10% Fetal Bovine Serum (FBS) and 1% penicillin-streptomycin at 37° C. in 5% CO2. The day before treatment, 50,000 HEK 293 cells were seeded into each well in 96-well plates. The peptides were added at concentrations ranging from 0 to 64 ? mol L^−1 and 48 h after exposure, cell viability was measured by means of MTS (dimethylthiazol-carboxymethoxyphenyl-sulfophenyl-tetrazolium) assay. Experiments were performed in triplicate for each condition.

[2] = tested on: Gram-positive bacteria, Gram-negative bacteria and fungi (twelve different strains); assay: Liquid growth inhibition MIC against larger panel of microorganisms (MIC average); format: cell-based; settings: for MIC Average: average of MIC over twelve different strains; for antimicrobial activity: second-generation analogs, larger panel
Description: FIGS. 5A-5D. Antimicrobial activity of second-generation library of synthetic peptides. FIG. 5A. In vitro activity of Pol-CP—NH2 and second generation of analogs against Gram-positive bacteria (Micrococcus luteus, Staphylococcus aureus, Staphylococcus epidermidis and Bacillus megaterium), Funghi (Candida albicans and Candida tropicalis) and Gram-negative bacteria (Escherichia coli, Enterobacter cloacae and Serratia marcescens). Experiments performed in triplicates. FIG. 5B. MIC (μmol L^−1) average vs fH in TFE/Water solution. FIG. 5C. Graph correlating MIC (μmol L^−1) averages vs H and (FIG. 5D) MIC (μmol L^−1) averages vs μH, where dots above the dashed line represent peptides with lower activity and dots below the dashed line show peptides with higher activity compared to the wild-type, in which one can observe ranges of optimal activity in determined intervals of H and μH values.
Microorganisms. The following strains were used: Micrococcus luteus A270, Staphylococcus aureus ATCC29213, Staphylococcus epidermidis ATCC12228, Bacillus megaterium ATCC10778 Escherichia coli SBS 363, Enterobacter cloacae ®-12, Serratia marcescens ATCC4112, Candida albicans MDM8, Candida tropicalis IOC4560 from Instituto Butanta, Sao Paulo, Brazil, and Escherichia coli BL21, Pseudomonas aeruginosa PA14, Pseudomonas aeruginosa PA01 and Staphylococcus aureus ATCC12600 from Synthetic Biology Group at MIT.
MIC assays. The MIC assays were performed using the broth microdilution method (Wiegand I. et al., Protoc. 3, 163-175 (2008); de la Fuente-Núñez C. et al., Antimicrob. Agents Chemother. 56, 2696-2704 (2012)) in sterile 96-well polypropylene microtiter plates. Peptides were added to the plate as solutions in BM2 minimal medium in concentrations ranging from 0 to 128 ? mol L^−1, and the bacteria were inoculated at a final concentration of 5×10^5 CFU mL^−1 per well. The plates were incubated at 37° C. for 24 h. The MIC was defined as the lowest concentration of compound at which no growth was observed. Additional liquid growth inhibition assays were done in Peptone Broth (PB, 0.5% NaCl, 1% Peptone at pH 7.4) and Potato Dextrose Broth (Invitrogen) were used for antibacterial and antifungal assays, respectively. Briefly, bacteria or fungi were incubated with serial dilutions of polybia-CP and analogs (50-0.09 μmol L^−1) in a 96-well microplate at 37° C. The microbial growth was assessed by measurements in a model 354 Multiskan Ascent microplate reader at A595nm, after 18 and 24 h (bacteria and fungi, respectively) incubation on a model 347CD FANEM incubator. MIC was defined as the minimal inhibitory concentration that prevents 100% of the bacterial growth. All assays were done in triplicate.

Substance | toxicity at 64 μmol L^−1 [1] | Cytotoxicity [1] [µmol/L] | Cytotoxicity ([1]; listed as wild-type peptide) [µmol/L] | MIC Average [2] [µM] | Cytotoxicity ([1]; listed as [Lys]^7-Pol-CP—NH2) [µmol/L] | cytotoxic concentration relative to MIC against P. aeruginosa ([1]; HEK293 cytotoxicity vs MIC) | antimicrobial activity ([2]; listed as [Lys]'-Pol-CP—NH2) | antimicrobial activity ([2]; listed as [Lys]^7-Pol-CP—NH2)
H-ILGTILGLLKSL-NH2 [WT, ILGTILGLLKSL-NH2, reference compound] | toxic | 32.0 | 32 | 16.2 | – | – | – | –
H-ILGTILKLLKSL-NH2 [Peptide 16, ILGTILKLLKSL-NH2] | toxic | 16.0 | – | 1.4 | 16 | two- to four-fold higher | impacted favorably both structure and antimicrobial activity | most active
